Reference: patent US4111955A, “N-Trihalomethanesulfenyl carbamoyloximino di-sulfur heterocyclic compounds” (priority 1976, dated 1978)

tested on: two-spotted mite (Tetranychus urticae Koch); assay: Mite Foliage Spray Test; format: in vivo; parameters: key to pesticidal activity rating, Mite: A: excellent control; B: partial control; C: no control; conditions: 500 parts per million, 6 days
Description: Adults and nymphal stages of the two-spotted mite (Tetranychus urticae Koch), reared on Tendergreen bean plants at 80±5 percent relative humidity, were the test organisms. Infested leaves from a stock culture were placed on the primary leaves of two bean plants 6 to 8 inches in height, growing in a 21/2 inch clay pot. 150-200 Mites, a sufficient number for testing, transferred from the excised leaves to the fresh plants in a period of 24 hours. Following the 24 hour transfer period, the excised leaves were removed from the infested plants. The test compounds were formulated by diluting the stock suspension with water to give a suspension containing 500 parts of test compound per million parts of final formulation. The potted plants (one pot per compound) were placed on a revolving turntable and sprayed with 100-110 milliliters of test compound formulation by use of a DeVilbiss spray gun set at 40 psig. air pressure. This application, which lasted 25 seconds, was sufficient to wet the plants to run-off. As a control, 100-110 milliliters of a water solution containing acetone and emulsifier in the same concentrations as the test compound formulation, but containing no test compound, were also sprayed on infested plants. The sprayed plants were held at 80±5 percent relative humidity for 6 days, after which a mortality count of motile forms was made. Microscopic examination for motile forms was made on the leaves of the test plants. Any individual which was capable of locomotion upon prodding was considered living.
(§1) In these tests the pesticidal activity of the compounds against aphid, mite, Southern Armyworm, Bean Beetle and House fly was rated as follows:
(§2) The LD50 values shown in the above Table II were determined by testing the compositions over an appropriate concentration range obtained by serial dilution of the stock suspension with water. The percent kill was plotted on log-probit graph paper versus parts per million concentration, and the LD50 read from an eye-fitted line drawn through the resultant points.

SMILES	pesticidal activity rating, Mite
CNC(=O)ON=C1C[S+]([O-])CCS1 (centres unmarked) [drawing 10 --NHCH3, reference compound]	A
CNC(=O)ON=C1SCCSC1C (centres unmarked) [drawing 11 --NHCH3, reference compound]	A
CNC(=O)ON=C1CSCS1 [drawing 5 --NHCH3, reference compound]	A
CN(SC(Cl)(Cl)Cl)C(=O)ON=C1C[S+]([O-])CCS1 (centres unmarked) [2-O-[(N-METHYL-N-TRICHLOROMETHANESULFENYL) CARBAMOYLOXIMINO]-1,4-DITHIANE-4-OXIDE]	A
CNC(=O)ON=C1SCCSC1(C)C [drawing 7 --NHCH3, reference compound]	A
CN(SC(Cl)(Cl)Cl)C(=O)ON=C1CSCS1 [4-[(N-METHYL-N-TRICHLOROMETHANESULFENYL)-CARBAMOYLOXIMINO]-1,3-DITHIOLANE]	A
CN(SC(Cl)(Cl)Cl)C(=O)ON=C1SCCSC1(C)C	A

tested on: house flies (Musca domestica, L.); assay: Fly Bait Test; format: in vivo; parameters: key to pesticidal activity rating, Housefly: A: excellent control; B: partial control; C: no control; conditions: 500 parts per million, 24 hours
Description: Four to 6 day old adult house flies (Musca domestica, L.), reared according to the specifications of the Chemical Specialities Manufacturing Association (Blue Book, McNair-Dorland Co., N.Y. 1954; pages 243-244, 261) under controlled conditions of 80°±5° F. and 50±5 percent relative humidity, were the test insects. The flies were immobilized by anesthetizing with carbon dioxide and twenty five immobilized individuals, males and females, were transferred to a cage consisting of a standard food strainer about 5 inches in diameter which was inverted over a wrapping-paper-covered surface. The test compounds were formulated by diluting the stock suspension with a 10 percent (by weight) sugar solution to give a suspension containing 500 parts of test compound per million parts of final formulation, by weight. Ten milliliters of the test formulation were added to a souffle cup containing a 1-inch square of an absorbent cotton pad. This bait cup was introduced and centered on the blotting paper under the food strainer prior to admitting the anesthetized flies. The caged flies were allowed to feed on the bait for 24 hours, at a temperature of 80°±5° F. and the relative humidity of 50±5 percent.
as §1, §2

SMILES	pesticidal activity rating, Housefly
CNC(=O)ON=C1C[S+]([O-])CCS1 (centres unmarked) [drawing 10 --NHCH3, reference compound]	A
CNC(=O)ON=C1SCCSC1C (centres unmarked) [drawing 11 --NHCH3, reference compound]	A
CNC(=O)ON=C1CSCS1 [drawing 5 --NHCH3, reference compound]	A
CN(SC(Cl)(Cl)Cl)C(=O)ON=C1C[S+]([O-])CCS1 (centres unmarked) [2-O-[(N-METHYL-N-TRICHLOROMETHANESULFENYL) CARBAMOYLOXIMINO]-1,4-DITHIANE-4-OXIDE]	A
CNC(=O)ON=C1SCCSC1(C)C [drawing 7 --NHCH3, reference compound]	A
CN(SC(Cl)(Cl)Cl)C(=O)ON=C1CSCS1 [4-[(N-METHYL-N-TRICHLOROMETHANESULFENYL)-CARBAMOYLOXIMINO]-1,3-DITHIOLANE]	A
CN(SC(Cl)(Cl)Cl)C(=O)ON=C1SCCSC1(C)C	B

tested on: southern armyworm (Prodenia eridania, (Cram.)); assay: Southern Armyworm Leaf Spray Test; format: in vivo; parameters: key to pesticidal activity rating, Armyworm: A: excellent control; B: partial control; C: no control; conditions: 500 parts per million, 3 days
Description: Larvae of the southern armyworm (Prodenia eridania, (Cram.)), reared on Tendergreen bean plants at a temperature of 80°±5° F. and a relative humidity of 50±5 percent, constituted the test insects.
The test compounds were formulated by diluting the stock suspension with water to give a suspension containing 500 parts of test compound per million parts of final formulation. Potted Tendergreen bean plants of standard height and age were placed on a revolving turntable and sprayed with 100-110 milliliters of test compound formulation by use of a DeVilbiss spray gun set at 10 psig air pressure. This application, which lasted 25 seconds, was sufficient to wet plants to run-off. As a control, 100-110 milliliters of a water-acetone-emulsifier solution containing no test compound were also sprayed on infested plants. When dry, the paired leaves were separated and each one was placed in a 9 centimeter Petri dish lined with moistened filter paper. Five randomly selected larvae were introduced into each dish and the dishes were closed. The closed dishes were labeled and held at 80°-85° F. for 3 days. Although the larvae could easily consume the whole leaf within 24 hours, no more food was added. Larvae which were unable to move the length of the body, even upon stimulation by prodding, were considered dead. Percent mortality was recorded for various concentration levels.
as §1, §2

SMILES	pesticidal activity rating, Armyworm
CNC(=O)ON=C1C[S+]([O-])CCS1 (centres unmarked) [drawing 10 --NHCH3, reference compound]	A
CNC(=O)ON=C1SCCSC1C (centres unmarked) [drawing 11 --NHCH3, reference compound]	A
CNC(=O)ON=C1CSCS1 [drawing 5 --NHCH3, reference compound]	A
CN(SC(Cl)(Cl)Cl)C(=O)ON=C1C[S+]([O-])CCS1 (centres unmarked) [2-O-[(N-METHYL-N-TRICHLOROMETHANESULFENYL) CARBAMOYLOXIMINO]-1,4-DITHIANE-4-OXIDE]	A
CNC(=O)ON=C1SCCSC1(C)C [drawing 7 --NHCH3, reference compound]	A
CN(SC(Cl)(Cl)Cl)C(=O)ON=C1CSCS1 [4-[(N-METHYL-N-TRICHLOROMETHANESULFENYL)-CARBAMOYLOXIMINO]-1,3-DITHIOLANE]	A
CN(SC(Cl)(Cl)Cl)C(=O)ON=C1SCCSC1(C)C	A

tested on: bean aphid (Aphis fabae Scop.); assay: Bean Aphid Foliage Spray Test; format: in vivo; parameters: key to pesticidal activity rating, Aphid: A: excellent control; B: partial control; C: no control; conditions: 500 parts per million, 24 hour
Description: Adults and nymphal stages of the bean aphid (Aphis fabae Scop.) reared on potted dwarf nasturtium plants at 65°-70° F. and 50-70 percent relative humidity, constituted the test insects. For testing purposes, the number of aphids per pot was standardized to 100-150 by trimming plants containing excess aphids.
The test compounds were formulated by diluting the stock suspension with water to give a suspension containing 500 parts of test compound per million parts of final formulation.
The potted plants (one pot per compound tested) infested with 100-150 aphids, were placed on a revolving turntable and sprayed with 100-110 milliliters of test compound formulation by use of a DeVilbiss spray gun set at 40 psig. air pressure. This application, which lasted 25 seconds, was sufficient to wet the plants to run-off. As a control, 100-110 milliliters of a water-acetone-emulsifier solution containing no test compound were also sprayed on infested plants. After spraying, the pots were placed on their sides on a sheet of white standard mimeograph paper which had been previously ruled to facilitate counting. Temperature and humidity in the test room during the 24 hour holding period were 65°-70° F. and 50-70 percent, respectively. Aphids which fell onto the paper and were unable to remain standing after being uprighted were considered dead. Aphids remaining on the plants were observed closely for movement and those which were unable to move the length of the body upon stimulation by prodding were considered dead. Percent mortality was recorded for various concentration levels.
as §1, §2

SMILES	pesticidal activity rating, Aphid
CNC(=O)ON=C1C[S+]([O-])CCS1 (centres unmarked) [drawing 10 --NHCH3, reference compound]	C
CNC(=O)ON=C1SCCSC1C (centres unmarked) [drawing 11 --NHCH3, reference compound]	A
CNC(=O)ON=C1CSCS1 [drawing 5 --NHCH3, reference compound]	A
CN(SC(Cl)(Cl)Cl)C(=O)ON=C1C[S+]([O-])CCS1 (centres unmarked) [2-O-[(N-METHYL-N-TRICHLOROMETHANESULFENYL) CARBAMOYLOXIMINO]-1,4-DITHIANE-4-OXIDE]	A
CNC(=O)ON=C1SCCSC1(C)C [drawing 7 --NHCH3, reference compound]	A
CN(SC(Cl)(Cl)Cl)C(=O)ON=C1CSCS1 [4-[(N-METHYL-N-TRICHLOROMETHANESULFENYL)-CARBAMOYLOXIMINO]-1,3-DITHIOLANE]	A
CN(SC(Cl)(Cl)Cl)C(=O)ON=C1SCCSC1(C)C	A

tested on: Mexican bean beetle (Epilachna varivestis, Muls.); assay: Mexican Bean Beetle Leaf Spray Test; format: in vivo; parameters: key to pesticidal activity rating, Bean beetle: A: excellent control; B: partial control; C: no control; conditions: leaf spray, 500 parts per million, 3 days
Description: Fourth instar larvae of the Mexican bean beetle (Epilachna varivestis, Muls.), reared on Tendergreen bean plants at a temperature of 80°±5° F. and 50±5 percent relative humidity, were the test insects.
The test compounds were formulated by diluting the stock suspension with water to give a suspension containing 500 parts of test compound per million parts of final formulation. Potted Tendergreen bean plants of standard height and age were placed on a revolving turntable and sprayed with 100-110 milliliters of test compound formulation by use of a DeVilbiss spray gun set at 10 psig air pressure. This application, which lasted 25 seconds, was sufficient to wet plants to run-off. As a control, 100-110 milliliters of a water-acetone-emulsifier solution containing no test compound were also sprayed on infested plants. When dry, the paired leaves were separated and each was placed in a 9 centimeter Petri dish lined with moistened filter paper. Five randomly selected larvae were introduced into each dish, and the dishes were closed. The closed dishes were labeled and held at a temperature of 80°±5° F. for 3 days. Although the larvae could easily consume the leaf within 24 to 48 hours, no more food was added. Larvae which were unable to move the length of the body, even upon stimulation, were considered dead.
as §1, §2

SMILES	pesticidal activity rating, Bean beetle
CNC(=O)ON=C1C[S+]([O-])CCS1 (centres unmarked) [drawing 10 --NHCH3, reference compound]	A
CNC(=O)ON=C1SCCSC1C (centres unmarked) [drawing 11 --NHCH3, reference compound]	A
CNC(=O)ON=C1CSCS1 [drawing 5 --NHCH3, reference compound]	A
CN(SC(Cl)(Cl)Cl)C(=O)ON=C1C[S+]([O-])CCS1 (centres unmarked) [2-O-[(N-METHYL-N-TRICHLOROMETHANESULFENYL) CARBAMOYLOXIMINO]-1,4-DITHIANE-4-OXIDE]	A
CNC(=O)ON=C1SCCSC1(C)C [drawing 7 --NHCH3, reference compound]	A
CN(SC(Cl)(Cl)Cl)C(=O)ON=C1CSCS1 [4-[(N-METHYL-N-TRICHLOROMETHANESULFENYL)-CARBAMOYLOXIMINO]-1,3-DITHIOLANE]	A
CN(SC(Cl)(Cl)Cl)C(=O)ON=C1SCCSC1(C)C	A

tested on: not listed separately; assay: Peroral toxicity to mammals (rat); format: in vivo; conditions: in vivo, po; rat, peroral, Table I; read-out: Rat P.O. LD50
Description: Certain of these compositions were also evaluated to determine their peroral toxicity to mammals. The animal selected for this experiment was the rat. The test results obtained are expressed in terms of the number of milligrams of composition per kilogram of weight of the animal required to achieve a mortality rate of 50 percent (LD50).

SMILES	LD50 [mg/kg]
CNC(=O)ON=C1C[S+]([O-])CCS1 (centres unmarked) [drawing 10 --NHCH3, reference compound]	12.3
CNC(=O)ON=C1CSCS1 [drawing 5 --NHCH3, reference compound]	13
CN(SC(Cl)(Cl)Cl)C(=O)ON=C1C[S+]([O-])CCS1 (centres unmarked) [2-O-[(N-METHYL-N-TRICHLOROMETHANESULFENYL) CARBAMOYLOXIMINO]-1,4-DITHIANE-4-OXIDE]	28.3
CNC(=O)ON=C1SCCSC1(C)C [drawing 7 --NHCH3, reference compound]	0.3
CN(SC(Cl)(Cl)Cl)C(=O)ON=C1CSCS1 [4-[(N-METHYL-N-TRICHLOROMETHANESULFENYL)-CARBAMOYLOXIMINO]-1,3-DITHIOLANE]	75
CN(SC(Cl)(Cl)Cl)C(=O)ON=C1SCCSC1(C)C	7.07
